# Patent US5273985A, “Glycerin derivative and its pharmacological use” (Eisai Co., Ltd., priority 1988, dated 1993)
# Legend:
# [1] = tested on: platelet agglutination caused by PAF; assay: Inhibition of platelet agglutination caused by human PAF (platelet-rich plasma, optical method of Born); type: cell-based; conditions: PAF at minimum concentration for maximum agglutination, read-out: Agglutination inhibiting activity IC50
# Procedure: Effect on the Agglutination Caused by Human PAF
# One part by volume of a 3.8% sodium citrate solution was added to 9 parts by volume of blood sampled from the forearm of a healthy adult to whom had been administered no medicine for at least two weeks. A platelet-rich plasma (PRP) was prepared by centrifugation. The inhibition of the platelet agglutination was determined by an optical method of Born et al. with a Hematolaser II® (a platelet agglutination meter of Niko Bioscience Co.). PAF was dissolved in Tyrode solution [Ca^++ (+)] to form a solution having the minimum concentration for causing the maximum agglutination. The test compound was dissolved in a physiological saline.
# The agglutination inhibiting activity of the test compound was determined from the rate of inhibition of the maximum light transmittance (maximum agglutination rate) caused by PAF in control PRP. IC50 was determined from the inhibition curve.
# The numeral in the column of the Test compound in Table 1 refers to the Example number of the compound.
# Human PAF Receptor = molecular target: T1, Human PAF Receptor (Homo sapiens, UniProt P25105); assay: Human PAF receptor binding assay (3H-PAF, platelets); conditions: 3H-PAF 0.6 to 1 nM, 37° C., read-out: PAF receptor antagonism IC50
# T1 construct: The platelets were sampled from healthy males by an ordinary method; endogenous in cells; host or cells: human platelets from healthy males (intact platelet suspension)
# Procedure: Human PAF Receptor Binding Assay
# The platelets were sampled from healthy males by an ordinary method and suspended in a binding buffer [10 mM phosphate-buffered saline (pH 7.0) containing 0.1 w/v % of BSA and 0.9 mM of CaCl2) to form a suspension having a concentration of 10^8 /460 μl. 20 μl of a solution of the test compound in the binding buffer was placed in a polypropylene tube and then 460 μl of the platelet suspension was added thereto. The mixture was subjected to a vortex treatment and then incubated at 37° C. for 6 min. 20 μl of a solution of ^3 H-PAF in the binding buffer (final ^3 H-PAF concentration: 0.6 to 1 nM) was added thereto and the mixture was incubated for 6 min. 3 ml of a washing solution (saline containing 0.1 w/v % of BSA) cooled with ice was added thereto to terminate the reaction. The reaction mixture was filtered by suction through a glass filter (Whatman GF/C). The glass filter was dried and the radioactivity thereof was determined with a liquid scintillation counter.
# The inhibition % was calculated according to the following equation and IC50 so was determined by interpolation from the figure. [formula] wherein: total binding: dpm obtained when the concentration of the medicine or PAF is 0,
# non-specific binding: dpm obtained when 10^-5 M of cold PAF was added.
# lethal activity of PAF = assay: Preventive effect against the lethal activity of PAF; type: in vivo, ICR male mice; conditions: 15 minutes before PAF i.v.; for number of dead mice / number of mice (Survival rate): after one hour; for Survival rate: survival after one hour
# Procedure: Preventive Effect Against the Lethal Activity of PAF:
# A physiological saline or the test compound was given to ICR male mice weighing around 30 g by intravenous injection. After 15 minutes, 100 wg/kg of PAF was given to them by intravenous injection. Life and death of them were examined after one hour and the survival rate was determined.
# The survival rate is given by percentage. The denominator of the fraction
# is the number of the mice and the numerator is the number of the dead
# [2] = tested on: blood pressure drop induced by PAF; assay: Action on the blood pressure drop induced by PAF; type: in vivo, F344 rats; conditions: Rattus norvegicus, iv, 0.05 h; 0.01 mg/kg, i.v., three minutes after 0.5 μg/kg PAF; ratio of blood pressure rise to drop; read-out: Recovery rate
# Procedure: Action on the Blood Pressure Drop Induced by […]
# Cannulae were inserted into the carotid and the jugular of each of F344 rats anesthetized with Pento (50 mg/kg, i. p.). The blood pressure was determined at the carotid and 0.5 ml/kg of PAF or the test compound was given through the jugular. Three minutes after the injection of 0.5 μg/kg of PAF, the test compound was given and the antagonism thereof was evaluated.
# The recovery rate shown in Table 4 is the ratio of the blood pressure rise by the test compound to the drop thereof.
# [3] = Determination of stability in aqueous solution; type: physicochemical; conditions: pH 7.4, 37° C., 0.5M sodium phosphate; read-out: Half-value period of disappearance due to hydrolysis (t1/2) (converted)
# Procedure: Determination of Stability in Aqueous Solution
# These compounds were unstable in a neutral or alkaline aqueous solution mainly due to the hydrolysis reaction of the N-acetyl or N-benzoyl group. The relationships between the pH and decomposition rate of several compounds were examined to find that they have the same pattern. The decomposition rate constant under conditions (pH 7.4, 37° C.) where they were relatively easily decomposed was determined and the stabilities of the compounds were compared with one another.
# 9 parts by volume of a buffer solution (0.5M sodium phosphate, pH 7.4) was added to 1 part by volume of an aqueous sample solution (1 mg/ml) and the mixture was kept at 37° C. The sampling was conducted at appropriate time intervals and the residual rate of an unreacted compound was determined by reversed phase high-performance liquid chromatography. Since the decomposition rate of most of the compounds can be approximately represented by the first-order decomposition rate equation, the decomposition rate constant was determined by the least squares method.
# T1 sequence (P25105 whole entry): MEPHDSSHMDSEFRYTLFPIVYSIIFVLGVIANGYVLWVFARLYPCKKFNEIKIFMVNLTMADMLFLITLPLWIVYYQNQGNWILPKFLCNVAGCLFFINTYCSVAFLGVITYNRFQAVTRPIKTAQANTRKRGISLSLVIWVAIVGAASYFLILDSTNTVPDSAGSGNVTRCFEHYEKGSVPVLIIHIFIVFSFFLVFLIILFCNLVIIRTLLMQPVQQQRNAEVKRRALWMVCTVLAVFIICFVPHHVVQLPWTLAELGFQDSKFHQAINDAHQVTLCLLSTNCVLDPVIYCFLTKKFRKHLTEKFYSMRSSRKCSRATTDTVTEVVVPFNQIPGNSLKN
SMILES,IC50 [1],IC50 (Human PAF Receptor),number of dead mice / number of mice (Survival rate) (lethal activity of PAF; 0.03 mg/kg i.v.),Survival rate (lethal activity of PAF; 0.03 mg/kg i.v.),number of dead mice / number of mice (Survival rate) (lethal activity of PAF; 0.1 mg/kg i.v.),Survival rate (lethal activity of PAF; 0.1 mg/kg i.v.),number of dead mice / number of mice (Survival rate) (lethal activity of PAF; 0.3 mg/kg i.v.),Survival rate (lethal activity of PAF; 0.3 mg/kg i.v.),inhibition in vivo at 0.01 mg/kg [2],half-life [3]
"CCCCCCCCCCCCCCCCCCNS(=O)(=O)c1ccc(CNC(=O)OCC(COC(=O)N(Cc2cccc[n+]2CC)C(=O)c2ccccc2OC)OC)cc1 (stereo not shown) [Example 13, 1-Ethyl-2-[N-(2-methoxy)benzoyl-N-{2-methoxy-3-(4-octadecylsulfamoyl)benzylcarbamoyloxypropyloxy}carbonyl]aminomethylpyridinium chloride]",72 nM,0.25 nM,3/7,57.1%,0/7,100%,0/7,100%,89.7%,21.5 h
"CCCCCCCCCCCCCCCCCCNC(=O)OCCCNC(=O)OCC(COC(=O)N(Cc1cccc[n+]1CC)C(=O)c1ccccc1OC)OC (stereo not shown) [Example 14, 1-Ethyl-2-[N-(2-methoxy)benzoyl-N-{2-methoxy-3-(3-octadecylcarbamoyloxy)propylcarbamoyloxy}propoxycarbonyl]aminomethylpyridinium chloride]",44 nM,0.19 nM,,,,,,,96.8%,26.1 h
"CCCCCCCCCCCCCCCCCCNC(=O)OC1CCN(C(=O)OCC(COC(=O)N(Cc2cccc[n+]2CC)C(=O)c2ccccc2OC)OC)CC1 (stereo not shown) [Example 15, 1-Ethyl-2-[N-(2-methoxy)benzoyl-N-{2-methoxy-3-(4-octadecylcarbamoyloxy)piperidinocarbonyloxypropyloxyl}carbonyl]aminomethylpyridinium chloride]",80 nM,0.19 nM,2/7,71.4%,3/7,57.1%,0/7,100%,94.6%,24.4 h
"CCCCCCCCCCCCCCCCCCOc1c(OC)cc(COCC(COC(=O)N(Cc2cccc[n+]2CC)C(=O)c2ccccc2OC)OC)cc1OC (stereo not shown) [Example 18, 1-ethyl-2-(((N-((3,5-dimethoxy-4-octadecyloxy)benzyloxy-2-methoxypropyloxy))carbonyl-N-(2-methoxy)benzoyl))) aminomethyl pyridinium chloride]",660 nM,0.71 nM,,,,,,,74.1%,37.7 h
